Reference: a melting point compilation (Tetko et al.; mined from patent text by program, amines drawn as free bases though some values may be those of a salt)

| SMILES | melting point [°C] |
| --- | --- |
| C=CCOC(=O)c1ccc(-c2ccc3cc(C(=O)OCC)c(C45CC6CC(CC(C6)C4)C5)cc3c2OCCCCC)cc1 | 116 to 117 |
| CS(=O)(=O)NC(c1ccc(Cl)c2nc3n(c12)CCCN3c1c(Cl)cc(Cl)cc1Cl)C(F)(F)F (stereo unspecified) | 290 to 291 |
| Cc1cccc2[nH]c(=O)n3ccnc3c12 | 308 to 310 |
| CC(=O)Nc1ccc2c(c1)C(=O)C1(CC1)O2 | 211 to 212 |
| CCC12CCC3=C(CC(C)c4cc(OC)ccc43)C1CCC21OCCO1 (stereo unspecified) | 122 to 124 |
| CCOC(=O)c1nc(CCS(=O)(=O)c2ccc(Cl)cc2)no1 | 115 to 119 |
| CC1CSC(=O)C2Cc3ccccc3N2C1=O (stereo unspecified) | 108 to 110 |
| CC(=O)N1CCC2(CC1)CN=C(c1cc3sc(C)c(N(C)S(=O)(=O)c4cccs4)c3[nH]1)S2 | 231 |
| c1ccc(CN2CCC3(CC2)OCCCO3)cc1 | < 50 |
| NCCCCCCc1ccc(C2=NNC(=O)CC2)cc1 | 153 to 154 |
| CCCc1ccc(C=Nc2ccc(C#N)cc2)cc1 | 64.8 to 65.5 |
| CCc1cc2c3c(cc(C)c2[nH]c1=O)CC(C)(CN=[N+]=[N-])O3 (stereo unspecified) | 211 to 212 |
| Nc1c(C(F)(F)F)cc2[nH]c(=O)c(=O)[nH]c2c1Cl | > 360 |
| CCCN1C(=O)N2C[C@@H](Cc3ccccc3)N=C2c2[nH]c(CSCC)nc21 | 178 to 180 |
| CN1CCN(c2cc(Cl)cc3c2c(=O)n(CCc2ccccc2)c(=O)n3Cc2ccccc2)CC1 | 136 to 138 |
| Nc1c(Cl)cc(C(O)CNCCCCCCOCCCc2ccc(C(=O)O)cc2)cc1Cl (stereo unspecified) | 190 to 191 |
| CC(C)(C)c1cc(SC2(Sc3cc(C(C)(C)C)c(O)c(C(C)(C)C)c3)CCCCC2)cc(C(C)(C)C)c1O | 195 to 197 |
| O=c1[nH]c(=S)[nH]c2ccnn12 | 295 |
| CCCCNc1cc(CNc2ccccc2)cc(S(N)(=O)=O)c1Oc1ccccc1 | 142 to 143 |
| N#Cc1cccc(C=O)c1[N+](=O)[O-] | 109 to 111 |
| COc1ccc(C(=O)Nc2cc(-c3c(-c4cccc(C)c4)nc4ccc(N(C)C)nn34)ccn2)cc1 | 193 to 194 |
| O=c1[nH]sc2cc(Cl)ccc12 | 271 to 272 |
| Cc1cccc2c(C=O)cc(C(C)C)c(O)c12 | 125 to 128 |

| SMILES | melting point [°C] |
| --- | --- |
| CCc1cc2c(s1)N=C(NNC(=O)NC)CN=C2c1ccccc1Cl | 213 to 215 |
| Cc1ccc(C=CC(=O)NNC(=O)CCc2cc(C(C)(C)C)c(O)c(C(C)(C)C)c2)cc1 | 274 to 275 |
| O=P(O)(O)CCCCCCCCCCCC(F)(F)C(F)(F)C(F)(F)C(F)(F)F | 93 to 96 |
| CCOC(=O)Cc1cccc(-c2nc(COc3ccc(CCl)cc3OC)c(C)o2)c1 | 95 to 96 |
| CCC1(CC)C(=O)N(C(C)(C)C)CC(C)(C)N1OC(=O)Nc1ccccc1 | 160 to 163 |
| CCOC(=O)C(=C1CCCN1C)c1ccc(F)cc1 | 80 |
| C=C(Cc1ccc2c(c1)OCO2)C(=O)O | 121 |
| C=CCOC(=O)c1cnc2c(cnn2CCC(C)C)c1N | 124 to 126 |
| N#CCCN1C(=O)C(O)N=C(c2ccccc2Cl)c2cc(Cl)ccc21 (stereo unspecified) | 198 to 202 |
| CCCCC/C=C\C/C=C\C/C=C\C/C=C\CCCC(=O)N[C@@H](C)C(=O)N[C@H](CCC(=O)O)C(=O)O | 90 |
| CC(=O)OC(c1ccccc1)C1C(=O)NC1S(C)(=O)=O (mixture of isomers) | 178 to 182 |
| COc1cccc(-n2c(-c3sc(Nc4ccc(Cl)cc4)nc3C)nc3ccccc3c2=O)c1 | 243 to 244 |
| CCC(=O)NN=C(c1ccc(Cl)cc1)c1ccc(OS(C)(=O)=O)cc1 | 128 to 144 |
| Cc1cccc(NC(=O)NC2N=C(c3ccccc3F)c3ccccc3N(Cc3ncccc3C)C2=O)c1 (racemic) | 216 to 217 |
| CCCN(C(=O)CCl)[C@@H]1CCc2cc3c(cc2[C@H]1O)OCC3 (relative stereo) | 65 to 70 |
| Cc1cc(SCCSCC(=O)O)ccc1O | 86 |
| COc1nc(Cl)nc2c1c(C#N)cn2C1OC(CO)C(O)C1O (stereo unspecified) | 194 to 195 |
| COc1ccc(-c2cc(-c3cc(C)ns3)c(=O)n(C)c2-c2ccncc2)cc1 | 195 to 198 |
| CCOC(=S)C(CC(=O)c1ccc(Oc2ccccc2)cc1)C(=O)CC (stereo unspecified) | 55 to 57 |
| Cc1c(NC(=O)C(CSC(=O)c2cccnc2)Cc2ccccc2)cccc1C(=O)O (stereo unspecified) | 80 to 86 |
| CCCCCCCC(=O)NCCCCCOS(C)(=O)=O | 67 to 68 |
| NS(=O)(=O)c1cc(Cl)c(Cl)c(Cl)c1 | 190 to 191 |

The remaining lines, values ahead:

| melting point [°C] | SMILES |
| --- | --- |
| 171 | CC1=C(c2ccc(C(=O)N3Cc4ccc(C(=O)C(Cl)(Cl)Cl)n4Cc4ccccc43)cc2)CCCC1 |
| 251 to 253 | N#Cc1cccc(C2=Nc3ccc(-c4ccc(-c5ccccc5)cc4)cc3NC(=O)C2)c1 |
| 151 to 153 | CC(C)c1cccc(C(C)C)c1NC(=O)C1c2ccccc2OCc2nc(Br)ccc21 (stereo unspecified) |
| 161 to 162 | N#Cc1cc(C(F)(F)F)nn1-c1ccc(NC(=O)c2ccncc2F)cc1 |
| 103 | c1ccc2c(c1)OCCc1c-2n(CCN2CCCCC2)c2ccccc12 |
| 127 to 128 | OCCCN1CCN2c3ccccc3Cc3ccccc3C2C1 (stereo unspecified) |
| 150 to 152 | O=C1C2=NCCCN2c2ccc(F)cc21 |
| 223 | O=c1[nH]c2ccccc2c(=O)n1C1CCN(Cc2ccccc2)CC1 |
| 90 to 92 | CN(CCOc1ccccc1)[C@H]1CC[C@H](c2ccc(O)cc2)CC1 |
| 106 to 108 | COc1ncc(C(F)(F)F)cc1-c1cccn2nc(Nc3ccc(C4CCNCC4)cc3)nc12 |
| 186 to 190 | O=S(=O)(c1ccccc1)c1c[nH]c2c(C3CCNCC3)cccc12 |
| 130 | OC1CSC(Oc2cccc(-c3cccnc3Cl)c2)C(O)C1O (stereo unspecified) |
| 101 to 104 | COc1cccc(-c2ccc3c(c2)C2(CCCCC2)C(=NO)N3)c1 |
| 86.5 to 88.5 | CCOC(=O)C1Oc2ccccc2Cc2ccccc2O1 |
| 142 | O=C(N(C1CCNCC1)C1CC1)N1N=C2c3cc(F)ccc3OC[C@@H]2[C@@H]1c1ccccc1 (racemic) |
| 139 to 140 | CSc1ccc(C(=O)Cc2ccc(F)cc2)cc1 |
| 87 to 92 | COc1ccc(CC(=O)c2ccccc2)cc1 |
| 86 to 88 | O=C(/C=C/c1ccccc1Sc1ccc(Cl)cc1)NC1CCC(O)CC1 (stereo unspecified) |
| 134 to 136 | O=C1CCC(N2Cc3c(OCc4ccc(CN5CCSCC5)cc4)cccc3C2=O)C(=O)N1 (stereo unspecified) |
| 198 to 199 | O=C(O)c1cnc2ccn(Cc3ccccc3)n2c1=O |
| 165 to 167 | Fc1cccc(C(c2ccccc2)(c2cccc(F)c2)n2ccnc2)c1 |
| 113 to 115 | CCN1CCC2(CC1)OC(c1ccccc1)c1ccccc12 (stereo unspecified) |
| 105 to 108 | CN1CCN=C1C(O)(c1ccccc1)c1ccccn1 (stereo unspecified) |
| 116 to 118 | COc1cccc2c(Nc3ccccc3C)c(C(=O)C(C)C)cnc12 |
| 220 to 221 | OC[C@H]1CCCN1c1nc2c(-c3nc(C4CC4)no3)ncn2c2cccc(Cl)c12 |
| 189 to 191 | O=C1N(Cc2ccc3nsnc3c2)c2ccccc2C12COc1cc3c(cc12)OCCO3 (stereo unspecified) |
